Structures are written as SMILES. Where “and” joins values, the source holds several entries; their conditions need not be identical. Identical values can stand only once.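 These data come from cells grown in 96-well plates and exposed to compound for 48 hours at five concentrations. GI50 marks 50% less growth. TGI is the concentration that stops growth completely.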

Test systems include HL-60(TB) leukemia; HS 578T breast; SF-295 CNS; COLO 205 colon; LOX IMVI melanoma; SNB-75 CNS; NCI-H522 lung; TK-10 renal; MOLT-4 leukemia; A498 renal.
Holding throughout (assay): inhibition of tumour cell growth, NCI panel, 48 h

Consider `O=C1NC(=O)C(c2cccc([N+](=O)[O-])c2)=C1Nc1cc(Cl)c(O)c(Cl)c1`, for which the GI50 in the experiment with HL-60(TB) leukemia was above 25000 nM; in the experiment with HS 578T breast it was 7030 nM; with SF-295 CNS it was above 16300 nM; in the experiment on COLO 205 colon, above 25000 nM; in the experiment with LOX IMVI melanoma it was 24300 nM; in the experiment with SNB-75 CNS, 10700 nM. Moreover, the GI50 in the experiment on NCI-H522 lung was above 16500 nM; in the experiment on TK-10 renal, above 17700 nM; with MOLT-4 leukemia it was above 25000 nM; in the experiment with A498 renal, above 11500 nM. The TGI with HL-60(TB) leukemia was above 25 µM; in the experiment on HS 578T breast it was above 25 µM; in the experiment on SF-295 CNS, above 25 µM; in the experiment with COLO 205 colon, above 25 µM; in the experiment on LOX IMVI melanoma it was above 25 µM; in the experiment on SNB-75 CNS, above 25000 nM. Besides, the TGI in the experiment with NCI-H522 lung, with TK-10 renal, in the experiment with MOLT-4 leukemia and with A498 renal was above 25 µM each time.
For the compound `COc1ccc(-c2ccc(-c3ccc(C(=N)N)s3)s2)cc1`, the GI50 in the experiment with HL-60(TB) leukemia is 208 nM; with HS 578T breast, 295 nM; in the experiment on SF-295 CNS, 188 nM; with COLO 205 colon, 309 nM; in the experiment on LOX IMVI melanoma it was 191 nM; in the experiment with SNB-75 CNS it was 1390 nM. Also, the GI50 in the experiment with NCI-H522 lung is 264 nM; in the experiment with TK-10 renal, 175 nM; with MOLT-4 leukemia it was 315 nM; in the experiment on A498 renal, 1100 nM. The TGI in the experiment on HL-60(TB) leukemia amounted to 0.423 µM; with HS 578T breast it was 1.41 µM; with SF-295 CNS, 0.395 µM; with COLO 205 colon it was 0.916 µM; in the experiment on LOX IMVI melanoma, 0.382 µM; with SNB-75 CNS, 2910 nM. The TGI was determined as 1.2 µM in the experiment on NCI-H522 lung, 0.337 µM with TK-10 renal, 0.849 µM in the experiment with MOLT-4 leukemia and 2.41 µM in the experiment on A498 renal.
As for `[N-]=[N+]=Nc1cc(=O)n2c3c(cccc13)CCC2`, the TGI is above 100 µM in the experiment with HL-60(TB) leukemia; above 100 µM in the experiment on HS 578T breast; above 100 µM in the experiment on SF-295 CNS; above 100 µM in the experiment on COLO 205 colon; above 100 µM in the experiment on LOX IMVI melanoma; above 100000 nM in the experiment with SNB-75 CNS. For the same compound, the TGI with NCI-H522 lung, in the experiment on TK-10 renal, in the experiment with MOLT-4 leukemia and in the experiment on A498 renal was above 100 µM each time.
As to `CSc1ccc2c(c1)C(=O)c1c-2n(CCCBr)c(=O)c2cc([N+](=O)[O-])ccc12`, the GI50 in the experiment on HL-60(TB) leukemia was 532 nM; in the experiment with HS 578T breast it was above 100000 nM; with SF-295 CNS, 1040 nM; with COLO 205 colon, 17800 nM; in the experiment on LOX IMVI melanoma, 2110 nM; in the experiment with SNB-75 CNS, 7900 nM. Further, the GI50 with NCI-H522 lung was 5320 nM; in the experiment on TK-10 renal it was above 100000 nM; with MOLT-4 leukemia it was 558 nM; with A498 renal, 8320 nM. The TGI is 8.46 µM in the experiment with HL-60(TB) leukemia; above 100 µM with HS 578T breast; above 100 µM in the experiment with SF-295 CNS; above 100 µM with COLO 205 colon; 41.5 µM with LOX IMVI melanoma; above 100000 nM in the experiment with SNB-75 CNS. Besides, the TGI with NCI-H522 lung is 97.4 µM; in the experiment with TK-10 renal it was above 100 µM; in the experiment with MOLT-4 leukemia it was 17 µM; in the experiment with A498 renal, 96.4 µM.
Consider `CCCCCOc1ccc(/C=N/Nc2cc(C)nc3ccc(Br)cc23)cc1`, for which the GI50 was 1910 nM in the experiment with HL-60(TB) leukemia; 2330 nM with HS 578T breast; 1810 nM with SF-295 CNS; 1960 nM in the experiment on COLO 205 colon; 1860 nM in the experiment on LOX IMVI melanoma; 1770 nM in the experiment with SNB-75 CNS. In addition, the GI50 in the experiment on NCI-H522 lung is 2060 nM; with TK-10 renal, 1870 nM; in the experiment with MOLT-4 leukemia it was 1730 nM; in the experiment with A498 renal, 1830 nM. The TGI with HL-60(TB) leukemia came out at 3.78 µM; in the experiment on HS 578T breast, 5.64 µM; with SF-295 CNS, 3.5 µM; with COLO 205 colon, 3.72 µM; with LOX IMVI melanoma, 3.64 µM; in the experiment with SNB-75 CNS it was 3390 nM. The TGI turned out to be 4.71 µM with NCI-H522 lung, 3.42 µM in the experiment on TK-10 renal, 3.58 µM with MOLT-4 leukemia and 3.32 µM with A498 renal.
As to `CC[C@H]1CN2CCc3cc(OC)c(OC)cc3[C@@H]2C[C@@H]1C[C@H]1NCCc2c1[nH]c1ccc(O)cc21`, the GI50 with HL-60(TB) leukemia is 29.6 nM and 25 nM; in the experiment on SF-295 CNS it was 32.3 nM and 246 nM; with COLO 205 colon, 19 nM and 18.7 nM; in the experiment on LOX IMVI melanoma, 4.34 nM and 20.7 nM; in the experiment with SNB-75 CNS it was 32 nM and 22.3 nM; with NCI-H522 lung, 3.47 nM and 3.54 nM. In addition, the GI50 in the experiment on TK-10 renal was 94.3 nM; with MOLT-4 leukemia, 11.7 nM and 27.2 nM; with A498 renal, 191 nM. Besides, the TGI in the experiment on HL-60(TB) leukemia is 0.0955 µM and 0.0514 µM and 0.0353 µM; with HS 578T breast, 0.0653 µM and 0.0327 µM; with COLO 205 colon it was 0.0339 µM and 0.0347 µM and < 0.0117 µM; in the experiment on LOX IMVI melanoma, 0.0223 µM and 0.0902 µM and < 0.0107 µM; with SNB-75 CNS it was 111 nM and 73.2 nM and 54.4 nM; in the experiment on NCI-H522 lung, 0.0164 µM and 0.0108 µM. Besides, the TGI was 0.277 µM and 0.875 µM and 0.728 µM in the experiment on TK-10 renal; 0.136 µM and 0.507 µM and 0.223 µM in the experiment with A498 renal.
For the compound `[N-]=[N+]=Nc1cc(=O)[nH]nc1-c1ccccc1`, the TGI in the experiment with HL-60(TB) leukemia is above 100 µM; in the experiment with HS 578T breast it was above 100 µM; in the experiment on SF-295 CNS, above 100 µM; with COLO 205 colon it was above 100 µM; in the experiment with LOX IMVI melanoma it was above 100 µM; in the experiment on SNB-75 CNS it was above 100000 nM. Moreover, the TGI in the experiment with NCI-H522 lung, in the experiment with TK-10 renal, in the experiment on MOLT-4 leukemia and in the experiment on A498 renal was above 100 µM each time.
In the case of `C=C1C(=O)O[C@H]2[C@H]1CC/C(COC(=O)/C=C\C(=O)NCc1ccc(Cn3c(=O)sn(CCCC)c3=O)cc1)=C\CC[C@@]1(C)O[C@@H]21`, the GI50 with HL-60(TB) leukemia is 396 nM; in the experiment on HS 578T breast it was 1300 nM; with SF-295 CNS, 1730 nM; in the experiment on COLO 205 colon, 581 nM; with LOX IMVI melanoma, 179 nM; in the experiment with SNB-75 CNS it was 697 nM. Moreover, the GI50 in the experiment on NCI-H522 lung was 315 nM; in the experiment on TK-10 renal, 610 nM; with MOLT-4 leukemia, 340 nM; in the experiment with A498 renal, 1180 nM. For the same compound, the TGI was found to be 1.77 µM in the experiment on HL-60(TB) leukemia; 3.32 µM in the experiment with HS 578T breast; 3.24 µM with SF-295 CNS; 2.37 µM with COLO 205 colon; 0.379 µM in the experiment on LOX IMVI melanoma; 2190 nM in the experiment on SNB-75 CNS. Also, the TGI was 1.27 µM in the experiment with NCI-H522 lung, 1.78 µM in the experiment on TK-10 renal, 1.52 µM with MOLT-4 leukemia and 2.44 µM with A498 renal.
In the case of `N#CC1=C(N)Oc2cc(O)ccc2C1c1cccc2ccccc12` (stereo unspecified), the GI50 in the experiment with HL-60(TB) leukemia is 3160 nM; in the experiment on HS 578T breast, 16600 nM; in the experiment on SF-295 CNS, 7280 nM; with COLO 205 colon it was 16500 nM; in the experiment with LOX IMVI melanoma, 14800 nM; in the experiment with SNB-75 CNS, 14100 nM. The GI50 in the experiment on NCI-H522 lung was 6080 nM; in the experiment with TK-10 renal it was 15600 nM; in the experiment with MOLT-4 leukemia it was 5580 nM; with A498 renal it was 5250 nM. In addition, the TGI in the experiment on HL-60(TB) leukemia was 11.7 µM; in the experiment on HS 578T breast, 73 µM; in the experiment with SF-295 CNS, 25.6 µM; with COLO 205 colon it was 38.2 µM; in the experiment on LOX IMVI melanoma, 35.4 µM; in the experiment on SNB-75 CNS it was 32900 nM. Moreover, the TGI with NCI-H522 lung is 19.7 µM; in the experiment with TK-10 renal, 45.6 µM; with MOLT-4 leukemia it was 31.3 µM; with A498 renal it was 22.7 µM.
Turning to `COc1ccc(O)c(C(=O)c2ccc(C(=O)N[C@H]3CCCNC[C@@H]3NC(=O)c3ccncc3)cc2)c1F`, the GI50 in the experiment on HL-60(TB) leukemia is above 23500 nM; with HS 578T breast, 88.2 nM; with SF-295 CNS, 1900 nM; in the experiment with COLO 205 colon, above 25000 nM; in the experiment on LOX IMVI melanoma it was 7380 nM; in the experiment with SNB-75 CNS it was 13.5 nM. Further, the GI50 with NCI-H522 lung was 7690 nM; in the experiment with TK-10 renal it was 684 nM; in the experiment on MOLT-4 leukemia, 1380 nM; in the experiment on A498 renal, 331 nM. Besides, the TGI is above 25 µM with HL-60(TB) leukemia; 12.5 µM in the experiment with HS 578T breast; above 18.9 µM in the experiment with SF-295 CNS; above 25 µM in the experiment with COLO 205 colon; above 25 µM in the experiment on LOX IMVI melanoma; above 25 µM in the experiment with NCI-H522 lung. For the same compound, the results for the TGI in the experiment on TK-10 renal, with MOLT-4 leukemia and in the experiment with A498 renal were above 25 µM, 11.6 µM and 3.26 µM, respectively.
`O=C(CSC1CCc2ccccc21)N/N=C/c1ccccc1O` (stereo unspecified): the GI50 with HL-60(TB) leukemia is 2600 nM; in the experiment with HS 578T breast, 11700 nM; with SF-295 CNS it was 6840 nM; in the experiment with COLO 205 colon, 5870 nM; in the experiment on LOX IMVI melanoma, 2370 nM; with SNB-75 CNS, 5520 nM. Also, the GI50 in the experiment on NCI-H522 lung was 4980 nM; with TK-10 renal, 6100 nM; with MOLT-4 leukemia, 3790 nM; in the experiment on A498 renal it was 14700 nM. Further, the TGI is 8.72 µM with HL-60(TB) leukemia; 67.2 µM in the experiment on HS 578T breast; above 100 µM in the experiment on SF-295 CNS; above 100 µM in the experiment with COLO 205 colon; 21.5 µM with LOX IMVI melanoma; above 100000 nM in the experiment with SNB-75 CNS. Moreover, the TGI with NCI-H522 lung amounted to 26.4 µM; in the experiment with TK-10 renal it was 73.8 µM; with MOLT-4 leukemia, 56.7 µM; in the experiment on A498 renal, 44 µM.

Source of the values: PubChem BioAssay (NCI).
